Data as given in ChEMBL document CHEMBL4196075, “Structure-based optimization of a series of selective BET inhibitors containing aniline or indoline groups” (Eur J Med Chem, 2018).

Legend:
Format in all cases: ADME, organism-based
Details in all cases: in vivo
[1] = Tmax in ICR (CD-1) mouse at 20 mg/kg, po via gavage by mass spectrometric method
[2] = AUC (0 to t) in ICR (CD-1) mouse at 20 mg/kg, po via gavage by mass spectrometric method
[3] = Cmax in ICR (CD-1) mouse at 20 mg/kg, po via gavage by mass spectrometric method; parameters: dose 20 mg/kg, route oral
[4] = Cmax in ICR (CD-1) mouse at […], po via gavage by mass spectrometric method
[5] = Tmax in ICR (CD-1) mouse at […], po via gavage by mass spectrometric method
[6] = AUC (0 to t) in ICR (CD-1) mouse at […], po via gavage by mass spectrometric method

## Cc1ccc2c(c1)CCN2C(=O)c1ccc2c(c1)N(C1CC1)C(C)C(=O)N2C (centres undefined)
[1]
  Tmax: 15 min
[2]
  AUC(0-t): 189 ng·h/mL
[3]
  Cmax: 335 ng/mL

## Cc1ccc2c(c1)CCN2C(=O)c1ccc2c(n1)N(C1CC1)C(C)C(=O)N2C (centres undefined)
[4]
  Cmax: 189 ng/mL
[5]
  Tmax: 19.8 min
[6]
  AUC(0-t): 383 ng·h/mL

## Cc1ccc(NC(=O)c2ccc3c(c2)N(C2CC2)C(C)C(=O)N3C)c(C)c1 (centres undefined)
[1]
  Tmax: 18 min
[2]
  AUC(0-t): 2660 ng·h/mL
[3]
  Cmax: 1780 ng/mL
